Reference: patent publication US7744867B2, “PTPase inhibitors and method of using same” (The Cleveland Clinic Foundation, priority 2001, dated 2010)

Experiments:
NB4 cells = assay: Differentiation, proliferation and cell cycle of AML cell line; assay type: cell-based, human; conditions: 3 days; sodium stibogluconate 250 μg/ml, ATRA 1 μM
Protocol: Cell lines, cell culture, and cell proliferation assay. The NB4 cell line was a gift from Dr. Dan Lindner of CCF. HL60 and U937 cell lines were purchased from ATCC. These human AML cell lines were maintained in RPMI 1640 medium supplemented with 10% fetal calf serum (FCS). For cell proliferation assays, cells were cultured at 37° C. in 10% FCS medium containing various amounts of sodium stibogluconate for 6 days. The cell numbers in the cultures were determined by an MTT assay as described previously.
Differentiation of AML cell lines was assessed by their ability to produce superoxide as measured by reduction of NBT to formazan and by analysis of expression of CD11b surface marker by flow cytometry. For NBT reduction, each cell suspension was mixed with an equal volume of solution containing 1 mg/ml of NBT (Sigma) and 2.5 μg/ml of TPA for 30 minutes at 37° C. After incubation, cells containing the purple formazan deposits and cells devoid of NBT-reducing activity (white cells) in each sample were determined by counting 200 cells under microscope. We expressed the data as percentage of the following ratio: purple cells/purple+white cells. For analysis of cell surface antigens, cells were exposed to phycoerythrin (PE)−conjugated murine anti-human CD11b (DAKO corp, Carpinteria, Calif.). Analysis of fluorescence was performed on a FACScan flow cytometer (Beckton Dickinson, Mountain View, Calif.). The cell cycle was analyzed by flow cytometry after 3 days of culture of NB4 cells in the absence or presence of sodium stibogluconate (250 μg/ml) or ATRA (1 μM). Briefly, the cells were fixed in cold ethanol and incubated for 30 minutes at 4° C. in the dark with a solution of […] propidium iodide, 1 mg/ml RNase and 0.1% NP-40. Analysis was performed immediately after staining using the CELLFIT program (Becton Dickinson, Mountain View, Calif.).

[1] = test system: acute promyelocytic leukemia (APL); conditions: in vivo; cited from earlier work
GST/SHP-1 fusion protein [2] = target: T1, GST/SHP-1 fusion protein (Mus musculus, UniProt P29351); assay: In vitro PTPase assay, dephosphorylation of a synthetic phosphotyrosine peptide; assay type: biochemical
T1 construct: made in house
Protocol: In vitro PTPase activities were measured using the commercial protein tyrosine phosphatase assay kit (UBI) following established procedure. This assay measures the in vitro dephosphorylation of a synthetic phosphotyrosine peptide (R-R-L-I-E-D-A-E-pY-A-A-R-G). Briefly, 0.01 μg of GST/PTPase fusion protein was incubated in 50 μl of Tris buffer (10 mM Tris, […]) at 22° C. for 10 minutes, followed by addition of 0.2 mM of the phosphotyrosine peptide and incubation at 22° C. for 18 hours. 100 μl of Malachite Green solution was added and incubated for 5 minutes, and the absorbance at 660 nm was measured after 5 minutes.

Baf3 cells = assay: IL-3-induced proliferation of Baf3 cells; assay type: cell-based, murine
Protocol: The murine hematopoietic cell line Baf3 was maintained in RPMI 1640 medium supplemented with 10% fetal calf serum (FCS) and murine IL-3 (20 units/ml) as described previously. Human myeloid cell line TF-1 was maintained in RPMI 1640 supplemented with 10% FCS and 40 ng/ml of recombinant human GM-CSF as described previously. For cell proliferation assays, cells were washed in 10% FCS medium twice, resuspended in 10% FCS medium, incubated at 37° C. for 16 hours and then cultured at 37° C. in 10% FCS medium containing various amounts of cytokines, sodium stibogluconate, or PSbT for 3-6 days as indicated. The cell numbers in proliferation assays were determined by an MTT assay or by microscopic cell counting as indicated.

[3] = target: T2, PTP1B (GST fusion protein) (Homo sapiens, UniProt P18031); assay: In vitro PTPase assay, dephosphorylation of a synthetic phosphotyrosine peptide; assay type: biochemical; conditions: at 11,000 μg/ml
T2 construct: purchased Upstate Biotechnology Inc. (UBI, Lake Placid, N.Y.)
Protocol: (§1) In vitro PTPase activities were measured using the commercial protein tyrosine phosphatase assay kit (UBI) following established procedure. […] 100 μl of Malachite Green solution was added and incubated for 5 minutes, and the absorbance at 660 nm was measured after 5 minutes.

[4] = test system: Jak2 and Stat5 tyrosine phosphorylation; assay: IL-3-induced Jak2/Stat5 tyrosine phosphorylation in Baf3 cells; assay type: cell-based, murine
Protocol: For induction of cellular protein phosphorylation by sodium stibogluconate or pervanadate, Baf3 cells were incubated in 0.1% FCS RPMI 1640 medium at 37° C. for 16 hours. The cells were then washed twice in RPMI 1640 medium and incubated with sodium stibogluconate or pervanandate (0.1 mM) for various times prior to termination by lysing cells in cold lysis buffer (50 mM Tris, pH 7.4; 150 mM NaCl; 0.2 mM Na3VO4; 20 mm NaF; 1% NP40; 2 mM PMSF; 20 μg/ml of aprotinin and 1 mM of sodium molybdic acid). To determine the effect of sodium stibogluconate or potassium antimonyl tartrate on IL-3-induced Jak/Stat phosphorylation, Baf3 cells were deprived of the growth factor for 16 hours in 0.1% FCS RPMI 1640 medium and then incubated with or without sodium stibogluconate or potassium antimonyl tartrate for 10 minutes. IL-3 was next added to the cell suspension and incubated for various times. The cells were then harvested and lysed in cold lysis buffer at 4° C. for 45 minutes. Total cell lysates (TCL) were separated in SDS-PAGE gels, blotted onto nitrocellulose membrane (Schleicher & Schuell), probed with specific antibodies and detected using an enhanced chemiluminescence kit (ECL, Amersham).
A functional role of SHP-1 in dephosphorylating the Jak family kinases during cytokine signaling has been documented. To determine whether sodium stibogluconate inhibits SHP-1 in vivo, the effect of the drug on IL-3-induced Jak2 tyrosine phosphorylation in Baf3 cells was examined. Baf3 cells deprived of IL-3 were incubated with or without the drug for 10 minutes and then stimulated with IL-3 for various times. IL-3 induced tyrosine phosphorylation of Jak2 and Stat5 in Baf3 cells in the presence or absence of the drug. However, the phosphotyrosine levels of Jak2 and Stat5 in the presence of the drug were about twice of those in cells without drug treatment as determined by densitometry analysis.

PTPases = assay: PTPase inhibition in vitro by ketoconazole; assay type: biochemical
recombinant PRL-3 = target: T3, recombinant PRL-3 (Homo sapiens, UniProt O75365); assay: In vitro PTPase assay with recombinant PRL (peptide or DiFMUP substrate); assay type: biochemical; conditions: DiFMUP substrate; comparable conditions
T3 construct: made in house; host or cells: E. coli DH5α
Protocol: as §1
Recombinant GST fusion proteins of human PRL-1, 2 and 3 phosphatases were purified with glutathione beads from DH5α bacteria transformed by pGEX vectors containing cDNA fragments encoding the human PRLs which were generated by RT-PCR from H9 cells and confirmed by sequence analysis. Activities of the purified recombinant PRL proteins in dephosphorylating DiFMUP in the absence or presence of various inhibitors were measured following established procedure.
To assess whether sodium stibogluconate is an inhibitor of oncogenic PRL phosphatases, its effects on the PTPase activity of recombinant PRLs were evaluated by in vitro PTPase assays.

GST/SHP-1 fusion protein [5] = target: T1, GST/SHP-1 fusion protein; assay: Reversibility of SHP-1 inhibition (washing of bead-bound GST/SHP-1); assay type: biochemical; conditions: preincubated with inhibitor, then washed
Description: The beads were then washed 3 times in Tris buffer or without washing prior to in vitro PTPase assays.

T1 sequence (P29351 whole entry, the tested form may be a part): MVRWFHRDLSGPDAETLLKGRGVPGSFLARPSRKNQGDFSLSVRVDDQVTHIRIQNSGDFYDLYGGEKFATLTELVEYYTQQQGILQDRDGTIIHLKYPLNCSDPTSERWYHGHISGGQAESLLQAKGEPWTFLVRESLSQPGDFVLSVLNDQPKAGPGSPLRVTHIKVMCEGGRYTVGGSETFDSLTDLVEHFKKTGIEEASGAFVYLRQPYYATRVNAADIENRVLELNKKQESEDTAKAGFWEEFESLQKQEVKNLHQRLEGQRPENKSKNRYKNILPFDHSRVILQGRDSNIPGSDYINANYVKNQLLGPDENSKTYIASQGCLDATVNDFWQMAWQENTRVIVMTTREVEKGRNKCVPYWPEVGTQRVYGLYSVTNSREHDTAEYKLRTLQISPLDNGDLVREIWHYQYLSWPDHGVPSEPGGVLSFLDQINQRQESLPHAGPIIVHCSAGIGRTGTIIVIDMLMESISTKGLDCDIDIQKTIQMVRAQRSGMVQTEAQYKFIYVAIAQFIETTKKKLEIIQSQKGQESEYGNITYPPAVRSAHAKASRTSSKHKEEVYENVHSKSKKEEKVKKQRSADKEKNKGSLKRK
T3 sequence (O75365 whole entry): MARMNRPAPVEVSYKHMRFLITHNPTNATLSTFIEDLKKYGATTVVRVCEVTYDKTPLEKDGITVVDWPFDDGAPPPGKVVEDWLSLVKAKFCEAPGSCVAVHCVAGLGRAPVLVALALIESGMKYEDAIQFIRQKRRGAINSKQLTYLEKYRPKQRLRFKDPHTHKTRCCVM
T2 sequence (P18031 whole entry, species assumed, the tested form may be a part): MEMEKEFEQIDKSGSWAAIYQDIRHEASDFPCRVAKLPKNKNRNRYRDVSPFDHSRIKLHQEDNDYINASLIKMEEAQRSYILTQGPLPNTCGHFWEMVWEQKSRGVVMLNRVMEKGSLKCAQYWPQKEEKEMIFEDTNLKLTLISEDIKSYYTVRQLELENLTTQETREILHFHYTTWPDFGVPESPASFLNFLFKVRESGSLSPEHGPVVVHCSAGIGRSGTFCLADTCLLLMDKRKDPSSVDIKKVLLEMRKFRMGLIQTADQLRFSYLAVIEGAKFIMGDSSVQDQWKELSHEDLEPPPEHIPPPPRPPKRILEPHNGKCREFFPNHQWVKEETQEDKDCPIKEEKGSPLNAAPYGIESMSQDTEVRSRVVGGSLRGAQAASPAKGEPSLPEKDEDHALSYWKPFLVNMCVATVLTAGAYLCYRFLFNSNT

Compound: CC1=C(/C=C/C(C)=C/C=C/C(C)=C/C(=O)O)C(C)(C)CCC1 [ATRA, all-trans-retinoic acid]
- cell cycle arrest (DNA content analysis) (NB4 cells): arrested at G1 phase
- long term APL-free survival [1]: exceeding 75%

Compound: O.O.O.O=C([O-])[C@H]([O-])[C@@H]([O-])C(=O)[O-].O=C([O-])[C@H]([O-])[C@@H]([O-])C(=O)[O-].[K+].[K+].[Sb+3].[Sb+3] [PSbT, potassium antimonyl tartrate]
- inhibition of SHP-1 (GST/SHP-1 fusion protein [2]; at 11,000 μg/ml): no detectable inhibition
- IL-3-induced proliferation of Baf3 cells (Baf3 cells): failed to enhance
- toxicity against Baf3 cells (Baf3 cells): marked toxicity
- inhibition of PTP1B [3]: no detectable inhibition
- IL-3-induced Stat5 phosphorylation [4]: failed to enhance

Compound: CC(=O)N1CCN(c2ccc(OCC3COC(Cn4ccnc4)(c4ccc(Cl)cc4Cl)O3)cc2)CC1 (stereo not drawn) [ketoconazole]
- PTPase inhibition in vitro (PTPases): inhibits different PTPases

Compound: [Na+].[Na+].[Na+].[O]=[V]([O-])([O-])[O-] [sodium orthovanadate]
- inhibition of PRL-3 compared with sodium stibogluconate (recombinant PRL-3): less effective

Compound: Cc1ccc(C(=O)Nc2ccc(S(=O)(=O)O)c3cc(S(=O)(=O)O)cc(S(=O)(=O)O)c23)cc1NC(=O)c1cccc(NC(=O)Nc2cccc(C(=O)Nc3cc(C(=O)Nc4ccc(S(=O)(=O)O)c5cc(S(=O)(=O)O)cc(S(=O)(=O)O)c45)ccc3C)c2)c1 [suramin]
- inhibition of SHP-1 compared with sodium stibogluconate (GST/SHP-1 fusion protein [2]; under comparable conditions): less effective
- reversibility of SHP-1 inhibition (GST/SHP-1 fusion protein [5]): reversible
- inhibition of PRL-3 compared with sodium stibogluconate (recombinant PRL-3): less effective
